{"source": "ChEMBL document CHEMBL1649205", "about": "“CraA, a major facilitator superfamily efflux pump associated with chloramphenicol resistance in Acinetobacter baumannii” (2009)", "format_in_all_cases": "functional", "key": {"[1]": {"system": "Acinetobacter baumannii", "assay": "microbe, parasite or virus in culture", "conditions": "ATCC 19606", "description": "Antimicrobial activity against Acinetobacter baumannii ATCC 19606 expressing open reading frame orf3 encoded efflux pump CraA by Etest"}, "[2]": {"system": "Acinetobacter baumannii", "assay": "Antimicrobial activity against Acinetobacter baumannii JVAB01 expressing disrupted open reading frame orf3 mutant deficient in efflux pump CraA by Etest"}, "[3]": {"system": "Acinetobacter baumannii", "assay": "Antimicrobial activity against efflux pump CraA deficient Acinetobacter baumannii JVAB01 receiving pJV103 harboring open reading frame orf3 encoded efflux pump CraA by Etest"}, "[4]": {"system": "Acinetobacter baumannii", "assay": "Antimicrobial activity against Acinetobacter baumannii ATCC 19606 expressing open reading frame orf3 encoded efflux pump CraA in presence of efflux pump inhibitor phenyl-arginine-beta-naphthylamide by Etest"}, "[5]": {"system": "Acinetobacter baumannii", "assay": "Antimicrobial activity against Acinetobacter baumannii JVAB01 expressing disrupted open reading frame orf3 mutant deficient in efflux pump CraA in presence of efflux pump inhibitor phenyl-arginine-beta-naphthylamide by Etest"}, "[6]": {"system": "Acinetobacter baumannii", "assay": "Antimicrobial activity against efflux pump CraA deficient Acinetobacter baumannii JVAB01 receiving pJV103 harboring open reading frame orf3 encoded efflux pump CraA in presence of efflux pump inhibitor phenyl-arginine-beta-naphthylamide by Etest"}}}
{"smiles": "CCn1cc(C(=O)O)c(=O)c2cc(F)c(N3CCNCC3)cc21", "note": "[NORFLOXACIN]", "values": [{"measurement": "MIC", "setting": "[1]", "value": 6, "unit": "mg/L"}, {"measurement": "MIC", "setting": "[2]", "value": 6, "unit": "mg/L"}, {"measurement": "MIC", "setting": "[3]", "value": 6, "unit": "mg/L"}]}
{"smiles": "CCC[C@@H]1C[C@@H](C(=O)N[C@@H]([C@H]2O[C@H](SC)[C@H](O)[C@@H](O)[C@H]2O)[C@H](C)Cl)N(C)C1", "note": "[CLINDAMYCIN]", "values": [{"measurement": "MIC", "setting": "[1]", "value": "> 256", "unit": "mg/L"}, {"measurement": "MIC", "setting": "[2]", "value": "> 256", "unit": "mg/L"}, {"measurement": "MIC", "setting": "[3]", "value": "> 256", "unit": "mg/L"}]}
{"smiles": "O=C(N[C@H](CO)[C@H](O)c1ccc([N+](=O)[O-])cc1)C(Cl)Cl", "note": "[CHLORAMPHENICOL]", "values": [{"measurement": "MIC", "setting": "[4]", "value": 32, "unit": "mg/L"}, {"measurement": "MIC", "setting": "[5]", "value": 1.5, "unit": "mg/L"}, {"measurement": "MIC", "setting": "[1]", "value": "> 256", "unit": "mg/L"}, {"measurement": "MIC", "setting": "[2]", "value": 2, "unit": "mg/L"}, {"measurement": "MIC", "setting": "[6]", "value": 16, "unit": "mg/L"}, {"measurement": "MIC", "setting": "[3]", "value": 192, "unit": "mg/L"}]}
{"smiles": "CC[C@H]1OC(=O)[C@H](C)[C@@H](O[C@H]2C[C@@](C)(OC)[C@@H](O)[C@H](C)O2)[C@H](C)[C@@H](O[C@@H]2O[C@H](C)C[C@H](N(C)C)[C@H]2O)[C@](C)(O)C[C@@H](C)C(=O)[C@H](C)[C@@H](O)[C@]1(C)O", "note": "[ERYTHROMYCIN]", "values": [{"measurement": "MIC", "setting": "[1]", "value": 1.5, "unit": "mg/L"}, {"measurement": "MIC", "setting": "[2]", "value": 1.5, "unit": "mg/L"}, {"measurement": "MIC", "setting": "[3]", "value": 1.5, "unit": "mg/L"}]}
{"smiles": "CN(C)[C@@H]1C(O)=C(C(N)=O)C(=O)[C@@]2(O)C(O)=C3C(=O)c4c(O)cccc4[C@@](C)(O)[C@H]3C[C@@H]12", "note": "[TETRACYCLINE]", "values": [{"measurement": "MIC", "setting": "[1]", "value": 6, "unit": "mg/L"}, {"measurement": "MIC", "setting": "[2]", "value": 6, "unit": "mg/L"}, {"measurement": "MIC", "setting": "[3]", "value": 96, "unit": "mg/L"}]}
{"smiles": "C[C@@H](O)[C@H]1C(=O)N2C(C(=O)O)=C(SCCNC=N)C[C@H]12", "note": "[IMIPENEM ANHYDROUS]", "values": [{"measurement": "MIC", "setting": "[1]", "value": 0.75, "unit": "mg/L"}, {"measurement": "MIC", "setting": "[2]", "value": 0.75, "unit": "mg/L"}, {"measurement": "MIC", "setting": "[3]", "value": 0.75, "unit": "mg/L"}]}
{"smiles": "O=C(O)c1cn(C2CC2)c2cc(N3CCNCC3)c(F)cc2c1=O", "note": "[CIPROFLOXACIN]", "values": [{"measurement": "MIC", "setting": "[1]", "value": 0.25, "unit": "mg/L"}, {"measurement": "MIC", "setting": "[2]", "value": 0.25, "unit": "mg/L"}, {"measurement": "MIC", "setting": "[3]", "value": 0.25, "unit": "mg/L"}]}
{"smiles": "CCn1cc(C(=O)O)c(=O)c2ccc(C)nc21", "note": "[NALIDIXIC ACID]", "values": [{"measurement": "MIC", "setting": "[1]", "value": 12, "unit": "mg/L"}, {"measurement": "MIC", "setting": "[2]", "value": 12, "unit": "mg/L"}, {"measurement": "MIC", "setting": "[3]", "value": 12, "unit": "mg/L"}]}
